Reference: BindingDB's records for PubMed 11082457 (Centre De Recherches De Croissy, 2000)

Columns and labels:
[1] = biological target: T1, Alpha-1D adrenergic receptor (Homo sapiens, UniProt P25100)
T1 sequence (P25100 whole entry): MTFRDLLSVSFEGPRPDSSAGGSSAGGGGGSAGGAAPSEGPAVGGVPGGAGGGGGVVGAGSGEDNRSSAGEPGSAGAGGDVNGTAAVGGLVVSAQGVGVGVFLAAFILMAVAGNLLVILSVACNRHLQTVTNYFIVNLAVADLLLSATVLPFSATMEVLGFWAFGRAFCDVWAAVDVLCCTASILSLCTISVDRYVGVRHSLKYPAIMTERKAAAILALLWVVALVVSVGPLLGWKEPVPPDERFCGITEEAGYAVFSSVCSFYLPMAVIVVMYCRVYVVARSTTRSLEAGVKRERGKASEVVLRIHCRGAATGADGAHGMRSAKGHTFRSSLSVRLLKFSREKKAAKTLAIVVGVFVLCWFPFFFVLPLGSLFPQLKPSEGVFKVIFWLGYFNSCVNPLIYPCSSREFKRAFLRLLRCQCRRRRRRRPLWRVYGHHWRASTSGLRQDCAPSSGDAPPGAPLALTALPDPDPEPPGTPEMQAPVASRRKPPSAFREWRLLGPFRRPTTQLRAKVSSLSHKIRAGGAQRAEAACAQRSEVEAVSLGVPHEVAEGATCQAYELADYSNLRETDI

[2] = biological target: T2, Alpha-1A adrenergic receptor (Homo sapiens, UniProt P35348)
T2 sequence (P35348 whole entry): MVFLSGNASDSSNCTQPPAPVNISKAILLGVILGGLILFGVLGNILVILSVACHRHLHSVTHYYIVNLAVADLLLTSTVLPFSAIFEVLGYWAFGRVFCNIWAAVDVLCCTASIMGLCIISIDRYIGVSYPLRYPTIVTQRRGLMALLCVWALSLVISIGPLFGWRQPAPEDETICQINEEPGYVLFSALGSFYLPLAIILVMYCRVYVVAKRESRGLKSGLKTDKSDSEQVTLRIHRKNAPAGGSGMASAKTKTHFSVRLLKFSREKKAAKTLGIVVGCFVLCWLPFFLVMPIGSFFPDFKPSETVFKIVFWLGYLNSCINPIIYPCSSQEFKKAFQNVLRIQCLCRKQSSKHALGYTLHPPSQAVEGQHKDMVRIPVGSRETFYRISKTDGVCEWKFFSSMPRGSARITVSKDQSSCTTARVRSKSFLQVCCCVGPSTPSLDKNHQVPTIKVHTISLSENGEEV

Nischarin [3] = biological target: Nischarin (Rattus norvegicus, UniProt Q4G017)
Chain of Nischarin (Rattus norvegicus, UniProt Q4G017) (Q4G017 whole entry): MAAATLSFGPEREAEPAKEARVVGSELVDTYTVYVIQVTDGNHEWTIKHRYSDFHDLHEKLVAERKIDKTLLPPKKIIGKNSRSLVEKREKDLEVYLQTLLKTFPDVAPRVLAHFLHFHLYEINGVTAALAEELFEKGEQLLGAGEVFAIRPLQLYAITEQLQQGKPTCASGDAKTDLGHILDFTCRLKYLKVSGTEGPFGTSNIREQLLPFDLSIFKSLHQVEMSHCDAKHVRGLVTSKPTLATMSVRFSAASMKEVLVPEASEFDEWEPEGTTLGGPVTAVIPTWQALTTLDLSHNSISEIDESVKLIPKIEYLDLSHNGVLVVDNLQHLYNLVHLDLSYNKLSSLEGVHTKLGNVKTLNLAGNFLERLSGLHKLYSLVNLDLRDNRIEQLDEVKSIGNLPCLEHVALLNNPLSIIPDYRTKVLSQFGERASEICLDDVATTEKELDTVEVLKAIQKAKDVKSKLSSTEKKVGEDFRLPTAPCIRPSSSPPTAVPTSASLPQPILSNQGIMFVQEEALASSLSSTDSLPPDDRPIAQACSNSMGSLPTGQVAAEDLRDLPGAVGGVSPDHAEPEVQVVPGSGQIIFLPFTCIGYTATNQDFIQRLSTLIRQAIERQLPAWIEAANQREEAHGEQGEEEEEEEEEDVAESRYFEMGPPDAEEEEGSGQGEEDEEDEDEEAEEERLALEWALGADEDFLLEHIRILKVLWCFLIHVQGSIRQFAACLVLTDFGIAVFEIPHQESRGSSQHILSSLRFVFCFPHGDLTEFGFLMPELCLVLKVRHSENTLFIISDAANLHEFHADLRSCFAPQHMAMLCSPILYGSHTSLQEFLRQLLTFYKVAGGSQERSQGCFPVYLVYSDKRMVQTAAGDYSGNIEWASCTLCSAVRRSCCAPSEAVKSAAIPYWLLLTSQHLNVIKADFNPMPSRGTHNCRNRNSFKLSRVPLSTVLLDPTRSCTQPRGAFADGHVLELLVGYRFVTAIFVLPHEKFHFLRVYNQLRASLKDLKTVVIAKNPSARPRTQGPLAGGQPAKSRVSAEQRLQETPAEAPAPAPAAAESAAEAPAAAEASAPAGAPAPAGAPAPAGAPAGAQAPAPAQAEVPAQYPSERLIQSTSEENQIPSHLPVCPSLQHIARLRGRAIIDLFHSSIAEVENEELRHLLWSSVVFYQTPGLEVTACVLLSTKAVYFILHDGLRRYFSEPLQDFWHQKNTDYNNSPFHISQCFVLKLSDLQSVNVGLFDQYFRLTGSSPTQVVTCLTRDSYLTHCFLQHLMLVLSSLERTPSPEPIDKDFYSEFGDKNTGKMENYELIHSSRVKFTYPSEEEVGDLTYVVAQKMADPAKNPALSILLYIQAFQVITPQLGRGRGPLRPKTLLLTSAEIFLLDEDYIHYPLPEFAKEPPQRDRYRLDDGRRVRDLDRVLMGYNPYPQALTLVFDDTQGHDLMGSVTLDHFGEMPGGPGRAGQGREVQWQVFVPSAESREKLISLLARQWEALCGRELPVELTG

Nischarin [4] = biological target: T3, Nischarin (Bos mutus, UniProt L8IEU8)
T3 sequence (L8IEU8 whole entry): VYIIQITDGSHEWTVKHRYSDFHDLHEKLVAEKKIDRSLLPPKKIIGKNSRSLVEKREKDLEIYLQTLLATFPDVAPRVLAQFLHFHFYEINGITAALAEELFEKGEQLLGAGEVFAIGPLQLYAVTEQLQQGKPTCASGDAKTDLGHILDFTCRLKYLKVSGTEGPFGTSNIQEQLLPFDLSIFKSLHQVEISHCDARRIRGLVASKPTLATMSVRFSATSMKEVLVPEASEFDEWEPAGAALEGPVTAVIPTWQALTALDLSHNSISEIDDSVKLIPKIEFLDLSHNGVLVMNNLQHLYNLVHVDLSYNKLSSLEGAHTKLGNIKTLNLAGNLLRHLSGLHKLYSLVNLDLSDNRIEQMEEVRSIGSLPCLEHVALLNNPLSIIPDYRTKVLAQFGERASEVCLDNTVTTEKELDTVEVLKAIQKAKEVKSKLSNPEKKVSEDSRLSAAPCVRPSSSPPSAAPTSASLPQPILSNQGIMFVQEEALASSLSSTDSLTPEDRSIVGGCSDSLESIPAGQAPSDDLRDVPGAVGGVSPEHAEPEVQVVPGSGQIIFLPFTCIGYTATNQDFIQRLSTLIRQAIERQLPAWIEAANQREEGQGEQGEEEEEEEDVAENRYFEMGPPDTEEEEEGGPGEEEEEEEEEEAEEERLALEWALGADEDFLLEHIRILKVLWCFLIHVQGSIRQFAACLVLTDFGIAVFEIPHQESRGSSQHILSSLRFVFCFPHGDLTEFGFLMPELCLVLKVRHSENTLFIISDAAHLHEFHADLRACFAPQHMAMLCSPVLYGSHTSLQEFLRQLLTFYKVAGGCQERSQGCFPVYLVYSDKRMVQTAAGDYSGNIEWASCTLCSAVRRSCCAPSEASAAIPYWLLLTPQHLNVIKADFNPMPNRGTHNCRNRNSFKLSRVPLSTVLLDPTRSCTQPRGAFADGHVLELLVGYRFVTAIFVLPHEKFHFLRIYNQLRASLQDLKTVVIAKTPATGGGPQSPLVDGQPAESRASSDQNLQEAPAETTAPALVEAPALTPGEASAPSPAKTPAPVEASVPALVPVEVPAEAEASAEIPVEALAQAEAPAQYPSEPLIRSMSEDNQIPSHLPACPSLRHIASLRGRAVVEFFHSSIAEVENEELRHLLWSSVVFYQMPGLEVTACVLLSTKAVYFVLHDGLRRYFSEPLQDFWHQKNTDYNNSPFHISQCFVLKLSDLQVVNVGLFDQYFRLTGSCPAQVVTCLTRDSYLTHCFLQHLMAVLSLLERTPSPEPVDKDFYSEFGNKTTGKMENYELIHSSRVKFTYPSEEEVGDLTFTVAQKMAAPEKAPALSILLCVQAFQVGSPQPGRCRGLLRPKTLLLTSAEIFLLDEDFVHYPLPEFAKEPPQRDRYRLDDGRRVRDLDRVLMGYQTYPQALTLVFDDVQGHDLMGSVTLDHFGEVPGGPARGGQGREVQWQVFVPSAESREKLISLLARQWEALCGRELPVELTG

| SMILES | Ki [1] [nM] | Ki [2] [nM] | Ki (Nischarin [3]) [nM] | Ki (Nischarin [4]) [nM] |
| --- | --- | --- | --- | --- |
| NC1=NC2(CCc3ccccc3C2)CO1 (stereo not drawn) [S18616] | 25.1 | 3.98 | 79.4 | 39.8 |
| Cc1cccc([C@@H](C)c2cnc[nH]2)c1C | 79.4 | 200 | 50.1 | 200 |
